The values that follow come from patent US10658848B2, “Materials for use with aqueous redox flow batteries and related methods and systems” (Massachusetts Institute of Technology, priority 2014, dated 2020).

This data set in a line: Solubility limit of quinoxaline in electrolytes and DI H2O. The format is physicochemical. As to conditions: thermodynamic from solid. As for the experimental part:
The solubility limit (at room temperature) of quinoxaline in several electrolytes and DI H2O was estimated using the following method. Scintillation vials were filled with a known volume of electrolyte, and quinoxaline was added in 0.5 M increments. The vials were then vortex sonicated for ˜5 min between quinoxaline additions. Once no more quinoxaline could be dissolved into the vial, the solubility limit was recorded. This method was accurate to the lowest 0.5 M concentration, and solution volume changes due to quinoxaline addition were not considered.

≈ marks a conversion by molar mass, not a printed value. Read-outs that look alike come from different tables or passages of the source.

On to `c1ccc2nccnc2c1` [quinoxaline], for which the solubility is, setting by setting: (0.45 M K2SO4/0.1 M KOH electrolyte, aqueous buffer, 0.45M K2SO4/0.1M KOH, pH 12.9, room temperature, three phase separation, read-out: Solubility Limit) 500 mM (≈ 65.1 mg/mL); (0.495 M K2SO4/0.01 M KOH electrolyte, aqueous buffer, 0.495M K2SO4/0.01M KOH, pH 11.8, room temperature, three phase separation, read-out: Solubility Limit) 500 mM (≈ 65.1 mg/mL); (0.9 M KCl/0.1 M KOH electrolyte, aqueous buffer, 0.9M KCl/0.1M KOH, pH 12.9, room temperature, bed of small crystals, read-out: Solubility Limit) 4000 mM (≈ 521 mg/mL); (0.99 M KCl/0.01 M KOH electrolyte, aqueous buffer, 0.99M KCl/0.01M KOH, pH 11.8, room temperature, bed of small crystals, read-out: Solubility Limit) 4000 mM (≈ 521 mg/mL); (1 M KOH electrolyte, aqueous buffer, 1M KOH, pH 13.7, room temperature, dendritic precipitation of crystals, read-out: Solubility Limit) 500 mM (≈ 65.1 mg/mL); (aqueous electrolytes containing K2SO4 or only KOH, aqueous buffer, read-out: solubility of quinoxaline) at most 500 mM. Further, the solubility was at most 4000 mM (solutions containing KCl, aqueous buffer, read-out: solubility of quinoxaline) and 4500 mM (≈ 586 mg/mL) (water, DI H2O, pH 7.0, room temperature, bed of small crystals, read-out: Solubility Limit).

The solubility is how much of the substance goes into solution per volume.
